Reference: publication PMC9996622 (ACS Omega, 2023)

Molecular target: T1, DnaE1 (Mycobacterium tuberculosis, UniProt P9WNT7)
T1 sequence (P9WNT7 1-1184): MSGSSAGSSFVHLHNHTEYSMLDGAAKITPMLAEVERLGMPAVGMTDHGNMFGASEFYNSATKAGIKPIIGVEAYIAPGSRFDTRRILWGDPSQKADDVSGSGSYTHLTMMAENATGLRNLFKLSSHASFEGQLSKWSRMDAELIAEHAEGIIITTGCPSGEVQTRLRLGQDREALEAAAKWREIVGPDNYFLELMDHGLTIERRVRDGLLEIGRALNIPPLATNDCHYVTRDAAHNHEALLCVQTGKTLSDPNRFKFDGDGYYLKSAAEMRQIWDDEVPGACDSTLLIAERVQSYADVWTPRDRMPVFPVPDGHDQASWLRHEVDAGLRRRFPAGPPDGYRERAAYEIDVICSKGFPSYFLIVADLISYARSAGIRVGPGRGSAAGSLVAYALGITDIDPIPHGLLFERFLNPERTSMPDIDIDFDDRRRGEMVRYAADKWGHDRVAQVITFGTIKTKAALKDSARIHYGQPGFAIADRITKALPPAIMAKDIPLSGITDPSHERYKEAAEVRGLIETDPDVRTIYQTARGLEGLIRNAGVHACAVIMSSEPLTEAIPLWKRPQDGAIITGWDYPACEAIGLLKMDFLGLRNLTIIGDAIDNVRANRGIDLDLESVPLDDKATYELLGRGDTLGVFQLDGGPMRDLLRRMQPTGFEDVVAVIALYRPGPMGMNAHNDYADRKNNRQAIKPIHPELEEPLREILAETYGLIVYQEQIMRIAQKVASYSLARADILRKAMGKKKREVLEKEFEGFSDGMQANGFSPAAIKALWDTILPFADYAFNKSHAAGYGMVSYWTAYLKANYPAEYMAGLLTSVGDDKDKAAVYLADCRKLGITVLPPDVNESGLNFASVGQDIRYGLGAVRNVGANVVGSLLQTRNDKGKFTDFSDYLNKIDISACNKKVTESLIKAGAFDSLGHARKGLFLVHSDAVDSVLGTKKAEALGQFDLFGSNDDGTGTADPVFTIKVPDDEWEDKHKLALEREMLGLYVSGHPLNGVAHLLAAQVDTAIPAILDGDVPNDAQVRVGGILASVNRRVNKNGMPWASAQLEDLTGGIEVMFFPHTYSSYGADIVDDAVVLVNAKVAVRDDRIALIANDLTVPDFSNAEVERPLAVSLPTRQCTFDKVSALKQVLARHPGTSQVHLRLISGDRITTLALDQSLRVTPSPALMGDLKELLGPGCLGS
Test: 2-aminopurine fluorescence exonuclease assay, dose-response
Format: biochemical

## OC[C@H]1O[C@@H](n2cnc3c(S)ncnc32)[C@H](O)[C@@H]1O [6-thioinosine]
  IC50: 64 µM
